This is an account of results in US8324202B2, “5-phenyl-1H-benzo [E] [1,4] diazepine compounds substituted with an hydroxamic acid group as histone deacetylase inhibitors” (Universita Degli Studi di Firenze, priority 2007, dated 2012).

Common to all, as to assay type: cell-based, human
Experiment [1] deals with NB4 cells. The experiment in a line: Cytostatic and apoptotic activity, Annexin-V-FLUOS/propidium iodide flow cytometry, 48 hours. As to conditions: for IC50: 48 hours, graphic extrapolation of Annexin-V results, viable cells over control, read-out: IC50 (drug concentration reducing cell density or viability by 50%). How it is done:
(§1) The new described compounds were tested for their ability to inhibit the histone deacetylase activity by western blot for the acetylated isoforms of histone H3 and H4 and also to induce growth arrest in cancer cells by activating apoptosis and/or cell differentiation. Initially, biological activities of newly synthesized HDACi were assessed by using the human acute promyelocytic leukemia cell line NB4, as the experimental model. Cells were maintained in RPMI (Bio-Whittaker Europe, Verviers, Belgio) supplemented with 10% of fetal calf serum (FCS, Boehringer Mannheim, Germania) and 2 mM glutamine (Merck, Darmstadt, Germania) at 37° C. in a humidified atmosphere of 5% CO2. Cells were counted in a Burker chamber and cells viability was assessed by the trypan blu exclusion test.
Cells, were initially harvested at 4×10^5/mL (3 mL/well) cell density 24 well plate and incubated for 48 hours with increasing drug concentration. All compounds were solubilized in DMSO so that the final concentration of vehicle in culture was lower than 0.1%. At the end of treatment cell viability and apoptosis were evaluated by cytofluorimetric analysis using Anexin-V-Fluos staining (Annexin-V-FLUOS Staining Kit, Roche Molecular Biochemicals, Mannheim, Germany).
Necrotic cells, which are also Annexin-V positive, were identified by using Propidium iodide fluorochrome, that is capable of penetrating cell membranes of dying or dead cells and binding DNA.
Briefly, aliquots of cell suspensions (approximately 10^5 cells) washed in buffer PBS, were resuspended in 5 μl of binding buffer containing annexin V-fluorescein isothiocyanate (FITC) and propidium iodide; incubation was carried out for 15 minutes at room temperature, and cells were then analyzed by flow cytometry (FACScan Becton-Dickinson, San Jose, Calif.).
The IC50 values (i.e. the drug concentration necessary to reduce cell density or viability by 50% as compared to untreated control cultures) obtained by graphic extrapolation of the Anexin-V results and expressed as percentage of viable cells over control were reported In Table 2.
Data represent the percentage of viable cells as the function of drug concentration.

In a further experiment the test system is acetylated H4 histone. The experiment can be described thus: Histone deacetylase inhibition: western blot for acetylated histone H4 in cells incubated 6 hours with drug. As to conditions: for Acetyl-H4 densitometric value: 6 hours, untreated = 0; for H4 histone acetylating activity, in words: summary in description. How it is done: as §1
(§2) Cells, obtained as described above, were harvested in sterile plates (Falcon, Becton Dickinson, Franklin Lakes, N.J.) at density of 6×10^5/mL, and incubated for 6 hours with increasing drug concentration of single compounds. Then, the cells were lysated with RIPA buffer (50 mM Tris-HCl pH 7.4, 150 mM NaCl, 1% Nonidet P-40, 1 mM EDTA plus protease inhibitor cocktail (Protease Inhibitor Cocktail Set III, n° cat. 539134, Calbiochem, Merck, Darmstadt, Germany) and sonicated (Labsonic 1510) twice for 15s pulses at 1-2 Watts in ice. Protein concentration of cell extracts was determined according to the bicinchoninic acid colorimetric method (BCA, Pierce, Rockford, USA) by using serum bovine albumin as the standard (BSA, Sigma, Steinheim, Germania). Equal amounts of protein (20-40 μg/20-30 μL/well) were separated on NuPAGE Bis-Tris 12% gel (Novex, Invitrogen, Carlsbad, Calif.) 10% and transferred to nitrocellulose membranes (Pro-Bind, pore diameter=0.45 μm; Amersham Pharmacia). Then membranes, incubated in phosphate buffer saline (PBS) with 6% defatted dry milk as blocking solution to saturate unspecific binding sites, were probed overnight at 4° C. with primary antibodies (1;1000 dilution in PBS) raised against acetylated H4 a H3 histone isoforms (Upstate Technologies, Lake Placid, N.Y., USA). […] The experiment was performed with the compound (II) S form, where R1 and R2 can be independently a methyl group or hydrogen.

In the next experiment the test system is acetylated H3 histone. The experiment can be described thus: Histone deacetylase inhibition: western blot for acetylated histone H3 in cells incubated 6 hours with drug. As to conditions: for Acetyl-H3 densitometric value: 6 hours, untreated = 1; for HDAC inhibitory / acetylating activity, in words (histone not specified) / H3 histone acetylating activity, in words: summary in description. How it is done: as §1, §2

Experiment [2] relates to NB4 cells. The experiment in a line: Granulocytic differentiation, cytofluorimetric analysis of CD11b membrane expression, alone or with ATRA. As to conditions: for % of CD11b+ cells: three days. How it is done:
Identification of markers of myeloid maturation was determined by flow cytometry by labelling cells with PE-conjugated antibody and FITC-conjugated antibody to CD11b (granulocyte marker) and CD14 (monocyte marker) respectively (Becton-Dickinson). Cell suspension aliquots (1×10^5 cells) were washed with cell wash buffer (Becton-Dickinson) and incubated with antibodies for 30 minutes in ice. After the incubation cells, resuspended in 0.3 mL of buffer containing Actinomycin D (Becton-Dickinson) to evaluate cell viability, were submitted to the cytofluorimetric analysis (FACScan, Becton-Dickinson). Cells incubated with appropriately labeled isotype controls were used to gate nonspecific fluorescence signal.
(§3) • Compounds (II) in racemic form and enantiomers S or R. • Compounds (III) in racemic form and enantiomers S or R. • Compounds (II) with R1 and R2=hydrogen were tested for their capability to synergize with ATRA and for their ability to induce granulocyte differentiation in the human promyelocytic cell line NB4. ATRA at the final concentration of 1 μM is usually employed to induce granulocyte differentiation in NB4 cells.
(§4) NB4 cells were incubated for three days in presence of the compounds listed above, alone or in combination with ATRA. Granulocyte differentiation of leukemic cells was determined by (a) Nitro-Blu tetrazolium (NBT) reduction to dark formazan precipitate (blu positive cells) counting NBT positive cells on Burker chamber and (b) cytofluorimetric analysis of CD11b membrane expression (granulocyte marker, see example 32).

Experiment [3] has as its system NB4 cells. The experiment in a line: Granulocytic differentiation, NBT reduction assay, alone or with ATRA. As to conditions: for % of NBT+ cells: three days; for effect on granulocytic differentiation / NBT positive cells, in words: alone or in combination with 20 nM ATRA. How it is done: The analysis of functional myeloid differentiation induced by compounds of the invention was accomplished by Nitro-Blu tetrazolium (NBT) reduction assay as described below. Cell suspension (approximately 10^5/mL) were incubated in the presence of 0.25 mg/mL NBT and 500 ng of PMA (Phorbol-12-Myristate 13-acetate) (Sigma) at 37° C. for 30 minutes. Granulocyte or monocyte differentiated cell were capable of reducing NBT to dark formazan precipitate (blu positive cells). NBT positive cells were counted on Burker chamber and expressed as percentage of total cell population.
as §3, §4

Each structure is given as a SMILES string. Where “and” joins values, the source holds several entries; their conditions need not be identical. Equal entries are not always repeated. Where two headings read alike, the source gives them in different places.

As for `CC1N=C(c2ccccc2)c2cc(NC(=O)CCCCCCC(=O)NO)ccc2N(C)C1=O` (racemic) [Compound (III) racemic with R1 or R2 = Me, N1-hydroxy-N8-(1,3-dimethyl-2-oxo-5-phenyl-2,3-dihydro-1H-1,4-benzo[e][1,4]diazepin-7-yl)octanediamide], the IC50 in the experiment with NB4 cells [1] is 4000 nM. The values for the Acetyl-H4 densitometric value with acetylated H4 histone (2 μM), with acetylated H4 histone (4 μM) and in the experiment on acetylated H4 histone (10 μM) were 12.96 arbitrary units, 23.7 arbitrary units and 28.15 arbitrary units, respectively. Further, the Acetyl-H3 densitometric value in the experiment on acetylated H3 histone (2 μM) is recorded as 4.04 arbitrary units; with acetylated H3 histone (4 μM) it was 4.92 arbitrary units; in the experiment on acetylated H3 histone (10 μM) it was 5.42 arbitrary units. The “HDAC inhibitory / acetylating activity, in words (histone not specified)” value in the experiment with acetylated H3 histone is “good inhibitory activity”.
As for `CN1C(=O)C(NC(=O)CCCCCCC(=O)NO)N=C(c2ccccc2)c2ccccc21` (racemic) [Compound (IV) racemic, N1-hydroxy-N8-(1-methyl-2-oxo-5-phenyl-2,3-dihydro-1H-benzo[e][1,4]diazepin-3-yl)octanediamide], the IC50 with NB4 cells [1] (Homo sapiens, NB-4) is 570 nM. The Acetyl-H4 densitometric value is given as 1 arbitrary units with acetylated H4 histone (0.5 μM), 5.78 arbitrary units with acetylated H4 histone (1 μM) and 10.89 arbitrary units in the experiment with acetylated H4 histone (2.5 μM). In the experiment with acetylated H4 histone, the “H4 histone acetylating activity, in words” value is “good acetylating activity of H4 histone”. For the same compound, the results for the Acetyl-H3 densitometric value in the experiment on acetylated H3 histone (0.5 μM), with acetylated H3 histone (1 μM) and with acetylated H3 histone (2.5 μM) were 2.67 arbitrary units, 3.17 arbitrary units and 3.38 arbitrary units, respectively. The “H3 histone acetylating activity, in words” value in the experiment with acetylated H3 histone is given as “reasonably good activity toward H3 histone”.
For the compound `CC1=C(/C=C/C(C)=C/C=C/C(C)=C/C(=O)O)C(C)(C)CCC1` [ATRA, all-trans-retinoc acid, reference compound], the “% of CD11b+ cells” value in the experiment with NB4 cells [2] (20 nM ATRA alone) is 13% and 10%; in the experiment on NB4 cells [2] (1 μM ATRA alone), 80% and 71.3% and 72%. In addition, the “% of NBT+ cells” value with NB4 cells [3] (20 nM ATRA alone) was 12% and 15%; in the experiment on NB4 cells [3] (1 μM ATRA alone), 78% and 80%.
With `C[C@H]1N=C(c2ccccc2)c2cc(C#CCCCC(=O)NO)ccc2N(C)C1=O` [Compound (II) R form with R1 or R2 = Me, (R)-6-(1,3-dimethyl-2-oxo-5-phenyl-2,3-dihydro-1H-benzo[e][1,4]diazepin-7-yl)-N-hydroxyhex-5-ynamide], the “% of CD11b+ cells” value is 19.8% in the experiment with NB4 cells [2] (1.5 μM compound + 20 nM ATRA) and 14.2% with NB4 cells [2] (1.5 μM compound alone). Further, the Acetyl-H4 densitometric value in the experiment with acetylated H4 histone (0.5 μM), in the experiment with acetylated H4 histone (1 μM) and in the experiment with acetylated H4 histone (2.5 μM) was 0 arbitrary units in each case. The “H4 histone acetylating activity, in words” value in the experiment with acetylated H4 histone was “does not show hyperacetylating activity on H4 histones”. Also, the Acetyl-H3 densitometric value in the experiment on acetylated H3 histone (0.5 μM) came to 2.5 arbitrary units; in the experiment with acetylated H3 histone (1 μM) it was 2.54 arbitrary units; in the experiment with acetylated H3 histone (2.5 μM) it was 3.69 arbitrary units. Further, the “H3 histone acetylating activity, in words” value in the experiment on acetylated H3 histone is recorded as “good activity toward H3 histone”. Besides, the “% of NBT+ cells” value is listed as 13.1% with NB4 cells [3] (1.5 μM compound + 20 nM ATRA) and “≦1%” in the experiment with NB4 cells [3] (1.5 μM compound alone). In addition, the “effect on granulocytic differentiation / NBT positive cells, in words” value in the experiment on NB4 cells [3] is recorded as “no appreciable effect on granulocytic differentiation”.
Take `CN1C(=O)CN=C(c2ccccc2)c2cc(NC(=O)CCCCCCC(=O)NO)ccc21` [Compound (III) R1 and R2 = hydrogen, N1-(1-methyl-2-oxo-5-phenyl-2,3-dihydro-1H-benzo[e][1,4]diazepin-7-yl)-N8-hydroxyoctanediamide]: the IC50 in the experiment with NB4 cells [1] (Homo sapiens, NB-4) is 3000 nM. Besides, the “apoptotic activity, in words” value in the experiment with NB4 cells [1] (leukemic cells, summary in description) is “good acetylating and apoptotic activities”. The Acetyl-H4 densitometric value came out at 2.39 arbitrary units with acetylated H4 histone (1 μM) and 6.63 arbitrary units in the experiment with acetylated H4 histone (2 μM). In addition, the Acetyl-H3 densitometric value with acetylated H3 histone (1 μM) was 2.84 arbitrary units; with acetylated H3 histone (2 μM), 3.23 arbitrary units. For the same compound, the “HDAC inhibitory / acetylating activity, in words (histone not specified)” value with acetylated H3 histone is “good acetylating and apoptotic activities”.
As for `C[C@@H]1N=C(c2ccccc2)c2cc(NC(=O)CCCCCCC(=O)NO)ccc2N(C)C1=O` [Compound (III) S form with R1 or R2 = Me, (S)—N-1-(1,3-dimethyl-2-oxo-5-phenyl-2,3-dihydro-1H-benzo[e][1,4]diazepin-7-yl)-N8-hydroxyoctanediamide], the figures for the “% of CD11b+ cells” value with NB4 cells [2] (3 μM compound + 20 nM ATRA) and in the experiment on NB4 cells [2] (3 μM compound alone) were 7.4% and 26%, respectively. Besides, the “effect on CD11b positive cells, in words” value with NB4 cells [2] (alone or in combination with 20 nM ATRA) was “no increase in CD11b positive cells”. In addition, the Acetyl-H4 densitometric value with acetylated H4 histone (1 μM) was 3 arbitrary units; in the experiment with acetylated H4 histone (2 μM) it was 4.81 arbitrary units; with acetylated H4 histone (5 μM) it was 12.59 arbitrary units. For the same compound, the Acetyl-H3 densitometric value with acetylated H3 histone (1 μM) is given as 2.73 arbitrary units; with acetylated H3 histone (2 μM) it was 2.65 arbitrary units; with acetylated H3 histone (5 μM), 3.61 arbitrary units. In the experiment on acetylated H3 histone, the “HDAC inhibitory / acetylating activity, in words (histone not specified)” value is given as “good inhibitory activity”. Further, the “% of NBT+ cells” value in the experiment with NB4 cells [3] (3 μM compound + 20 nM ATRA) worked out at 40%; in the experiment with NB4 cells [3] (3 μM compound alone), 3%. Besides, in the experiment on NB4 cells [3], the “effect on granulocytic differentiation / NBT positive cells, in words” value is “strong synergistic increase of NBT positive cells”.
